# From patent US20020082224A1, “NON-IMMUNOGENIC PRODRUGS AND SELECTABLE MARKERS FOR USE IN GENE THERAPY” (priority 1997, published 2002)
# Key:
# HT1080 cells = test: Tumor growth in nude mice inoculated with parental HT1080 cells, dosed with EP; format: in vivo, nude mice (Balb/c); conditions: s.c. inoculation of 5e5 cells, EP dosed 2-10 days after inoculation
# Protocol: (§1) hPLAP is able to convert the prodrugs, mitomycin phosphate (MOP) and etoposide phosphate (EP), into an active mitomycin C derivative, mitomycin alcohol, and etoposide. 5e5 HT1080 cells or HT/hPLAP cells (HT1080 cells stably expressing hPLAP) are inoculated subcutaneously into nude mice (Balb/c). Tumor development occurs in 7-14 days. Etoposide phosphate is prepared by the method of […] et al., Cancer Res. 49:5789-92, 1988, or obtained from a pharmacy (e.g., manufactured by Bristol-Myers Squibb). Animals are dosed with EP as described ([…] et al., 1988) 2-10 days after inoculation with cells.
# [1] = test system: HT/hPLAP cells (HT1080 cells stably expressing hPLAP); test: Tumor growth in nude mice inoculated with HT/hPLAP cells, dosed with EP; format: in vivo, nude mice (Balb/c)
# Protocol: as §1
# [2] = test system: acute myeloblastic leukemia (AML); conditions: as a single agent; % of patients; cited from earlier work
# [3] = cited from earlier work
SMILES,effect on tumors from parental HT1080 cells (HT1080 cells),"specificity of EP effect, HT1080 cells in one flank and HT/hPLAP cells in the contralateral flank ([1]; both cell types in the same animal)","effect on tumor growth of HT/hPLAP cells ([1]; s.c. inoculation of 5e5 cells, EP dosed 2-10 days after inoculation)",remission induced in patients with acute myeloblastic leukemia (AML) [2] [%],"concentrations in the CSF relative to plasma ([3]; IV infusion, after 2 hours of continuous infusion) [%]",Plasma half life ([3]; due to rapid deamination)
"COc1cc([C@@H]2c3cc4c(cc3[C@@H](O[C@@H]3O[C@@H]5CO[C@@H](C)O[C@H]5[C@H](O)[C@H]3O)[C@H]3COC(=O)[C@H]23)OCO4)cc(OC)c1OP(=O)(O)O [EP, etoposide phosphate]",resistant to the effect of EP,specific for cells expressing HPLAP,dose-dependent reduction in tumor growth,–,–,–
"Nc1ccn([C@@H]2O[C@H](CO)[C@@H](O)[C@@H]2O)c(=O)n1 [ara-C, cytosine arabinoside]",–,–,–,50,50,less than 20 minutes
